Source: paper PMC11420944, “Targeted Degradation of Protein Kinase A via a Stapled Peptide PROTAC” (ACS Chemical Biology, 2024)

Legend:
[1] = system: phospho VASP; assay: VASP phosphorylation in forskolin-stimulated cells, Western blot; assay type: cell-based; details: MDA-MB-231 cells, 10 µM, 5 h, 50 µM forskolin 30 min, n = 3
Procedure: (§1) Next, we sought to assess whether StIP-TAC could also downregulate PKAc signaling in cells. For this experiment, cells were treated with forskolin to stimulate PKAc activity. Cells were either treated with DMSO, the small molecule PKAc inhibitor H89, StIP-TAC alone, or StIP-TAC with SAINT protein (Figure 4; Figure S7). […] (Figure 4C,D). A known PKA substrate, vasodilator-stimulated phosphoprotein (VASP),[42] was also probed for PKA-mediated phosphorylation (Figure S8).
Cell-based PROTAC activity assays. MDA-MB-231 cells were grown on 6-well tissue culture plates (BD Biosciences). Cells were serum-starved for 24 hours in serum-free RPMI with penicillin/streptomycin, glucose, and L-glutamine. StIP-TAC treatment was prepared with SAINT-Protein reagent according to manufacturer protocol (Synvolux) and added to cells at a final concentration of 10 µM for 5 hours. For phosphorylation studies, cells were additionally stimulated with 50 µM forskolin for 30 minutes before harvesting. For H89-treated cells, 50 μM H89 was added 30 minutes before stimulation with forskolin. For degradation studies, cells were co-treated with 10 μM MG-132 (Selleck Chemicals) alongside StIP-TAC and DMSO treatments for the duration of the 5-hour experiment. […] Cells were harvested in Laemmli sample buffer, boiled for 10 minutes and protein levels were analyzed via western blotting. […]
Biosciences). Western blot fluorescence detection was performed using a LI-COR Odyssey Fc imaging system. […]
Table S1. Peptide and PROTAC sequences, expected and observed masses determined via HPLC-MS. […]
Figure S8: StIP-TAC inhibits phosphorylation of the PKA substrate VASP. […] (B) Densitometric quantification of Western blots […]
reduction in phosphorylated VASP in cells treated with H89 and StIP-TAC with SAINT Protein reagent. Quantification was performed via Li-COR Image Studio. **p=0.010; ***p<0.001; ns, not significant as assessed by one-way ANOVA and Bonferroni’s multiple comparisons test. […]

[2] = system: cells
[3] = system: phospho serine/threonine PKA substrate; assay: PKA substrate phosphorylation in forskolin-stimulated cells, Western blot; assay type: cell-based; details: MDA-MB-231 cells, 10 µM, 5 h, 50 µM forskolin 30 min, n = 3
Procedure: as §1
Cell-based PROTAC activity assays. MDA-MB-231 cells were grown on 6-well tissue culture plates (BD Biosciences). Cells were serum-starved for 24 hours in serum-free RPMI with penicillin/streptomycin, glucose, and L-glutamine. StIP-TAC treatment was prepared with SAINT-Protein reagent according to manufacturer protocol (Synvolux) and added to cells at a final concentration of 10 µM for 5 hours. For phosphorylation studies, cells were additionally stimulated with 50 µM forskolin for 30 minutes before harvesting. For H89-treated cells, 50 μM H89 was added 30 minutes before stimulation […]
with forskolin. […]
Cells were harvested in Laemmli sample buffer, boiled for 10 minutes and protein levels were analyzed via western blotting. For control experiments, cells were incubated for 5 hours with an equivalent volume of DMSO or SAINT-Protein to the above studies, with or without forskolin stimulation.
(§2) To assess PKA degradation, anti-PKAc (1:1000, BD Biosciences) and anti-GAPDH (1:1000, Proteintech) primary antibodies were used. To assess PKA substrate phosphorylation, anti-phospho serine/threonine PKA substrate (1:1000, Cell Signaling […]
Incubation with primary antibodies was followed by incubation with anti-mouse […]
(§3) Biosciences). Western blot fluorescence detection was performed using a LI-COR Odyssey Fc imaging system. Data analysis was performed using GraphPad Prism […]
(§4) Figure S7: Western blots for PKA substrate phosphorylation. Experiments were performed in triplicate (n=3) in low passage number MDA-MB-231 cells (ATCC HTB-26). Following t = 24 hour starvation in serum-free RPMI media, cells were treated for t = 5 hours with DMSO, SAINT-Protein Lipid reagent alone, 10 µM StIP-TAC, or 10 µM StIP-TAC incubated with SAINT-Protein Lipid reagent per manufacturer instructions. For forskolin-stimulated treatments, cells were incubated for 30 minutes with 50 µM forskolin […]
prior to harvesting in Laemmli sample buffer. For H89-inhibited treatments, cells were incubated for 30 minutes prior to forskolin stimulation with 50 µM H89. Lysates were run via SDS-PAGE and Western blotting performed anti-phospho serine/threonine PKA substrate (1:1000, Cell Signaling Technology) and anti-tubulin (1:1000, Cell Signaling Technology) primary antibodies.

[4] = biological target: T1, PKAc (Homo sapiens, UniProt P17612); assay: PKAc degradation in cells, Western blot densitometry; assay type: cell-based; details: MDA-MB-231 cells, n = 3
T1 construct: degrade native PKAc in cells, MDA-MB-231 cells were used; endogenous in cells; host or cells: MDA-MB-231 (ATCC HTB-26)
Excerpt: To determine whether StIP-TAC could successfully degrade native PKAc in cells, MDA-MB-231 cells were used. […] We hypothesized this lack of a statistically significant effect may be a result of the compound’s relatively large molecular weight (∼3 kDa) and potentially limited cellular permeability, a common limitation of PROTAC molecules.[37]−[40] […] Based on this study, we aimed to improve delivery of our compound using SAINT Protein. […] To confirm that StIP-TAC-mediated degradation of PKAc resulted from recruitment of the proteasome, we incubated cells with 10 μM StIP-TAC alongside 10 μM proteasomal inhibitor MG-132 and subsequently screened for PKAc protein levels.
Cell-based PROTAC activity assays. MDA-MB-231 cells were grown on 6-well tissue culture plates (BD Biosciences). Cells were serum-starved for 24 hours in serum-free RPMI with penicillin/streptomycin, glucose, and L-glutamine. StIP-TAC treatment was prepared with SAINT-Protein reagent according to manufacturer protocol (Synvolux) and added to cells at a final concentration of 10 µM for 5 hours. For phosphorylation studies, cells were additionally stimulated with 50 µM forskolin for 30 minutes before harvesting. For H89-treated cells, 50 μM H89 was added 30 minutes before stimulation with forskolin. For degradation studies, cells were co-treated with 10 μM MG-132 (Selleck Chemicals) alongside StIP-TAC and DMSO treatments for the duration of the 5-hour experiment. For studies examining the NAE-mediated activation of CRL, cells were co-treated with 6 μM MLN4924 (Cayman Chemical) alongside StIP-TAC for the duration of the 5-hour experiment. For studies examining potential effects of StIP-3 on PKAc protein levels, cells were treated with 10 μM StIP-3 with or without SAINT-Protein reagent for 5 hours. Cells were harvested in Laemmli sample buffer, boiled for 10 minutes and protein levels were analyzed via western blotting. For control experiments, cells were incubated for 5 hours with an equivalent volume of DMSO or SAINT-Protein to the above studies, with or without forskolin stimulation.
as §2, with “Signaling Technology) and anti-tubulin (1:1000, Cell Signaling Technology) primary antibodies were used. To assess phosphorylation of VASP, anti-phospho VASP (1:1000, Cell” for “Signaling”
Signaling Technology) and anti-GAPDH (0.5 μg/mL, DSHB) primary antibodies were used. Incubation with primary antibodies was followed by incubation with anti-mouse […]
as §3
Table S1. Peptide and PROTAC sequences, expected and observed masses determined via HPLC-MS. Asterisks (*) represent residues of (S)-2-(4-pentenyl)- […]
(1 picture or pasted object on this page, not shown here)
as §4, with “S3:” for “S7:”, “degradation.” for “substrate phosphorylation.”, “instructions.” for “instructions. For forskolin-stimulated treatments, cells were incubated for 30 minutes with 50 µM forskolin”

In the case of “Cereblon Ligand 1-PEG8-*TTY*DFIASGRTGRRNAI (sidechain bridge or staple) [StIP-TAC, StIP-3-derived stapled peptide conjugated to thalidomide-derived Cereblon Ligand 1 via a PEG-8 linker]”, the VASP phosphorylation ([1]; with SAINT-Protein) is reported as “significant inhibition”, the VASP phosphorylation ([1]; without SAINT Protein) is reported as “did not result in a significant reduction” and the cell permeability [2] is reported as “no longer permeable”. The PKAc substrate phosphorylation ([3]; with SAINT Protein) was “significant reduction in substrate phosphorylation to near basal levels”, the “phosphorylation of the approximately 55, 60, 80, and 100 kDa substrate bands” value ([3]; with SAINT Protein) was “statistically significant reduction” and the PKAc substrate phosphorylation ([3]; without SAINT Protein) was “did not yield a significant reduction”. The “PKAc protein levels on co-treatment with NAE inhibitor MLN4924” value ([4]; 10 µM with SAINT Protein, plus 6 µM MLN4924, 5 h) was “rescued PKAc protein to baseline levels”, the “PKAc protein levels on co-treatment with proteasomal inhibitor MG-132” value ([4]; 10 µM with SAINT Protein, plus 10 µM MG-132, 5 h) was “rescued PKAc protein to baseline levels” and the “reduction of PKAc protein levels vs vehicle control” value ([4]; 10 µM, 5 h, with SAINT Protein lipid reagent, normalized to GAPDH) was “approximately 50%”. For the same substance, the “PKAc degradation, forskolin stimulated vs unstimulated” value ([4]; 10 µM, 5 h, with or without 30 min 50 µM forskolin) was “no significant difference” and the “PKAc protein levels vs vehicle control” value ([4]; 10 µM, 5 h, without SAINT Protein lipid reagent, normalized to GAPDH) was “no significant reduction”.
